# In patent publication US6943186B2, “Methods of treating sepsis” (Yung Shin Pharmaceutical Ind. Co., Ltd., priority 2002, dated 2005):
# Where “and” joins values, the source holds several entries; their conditions need not be identical. Equal entries are not always repeated. Entries after “also recorded” stand apart in the source; their conditions may differ.
# Tests used:
# cytochrome c = assay: Detection of cytochrome c release; assay type: cell-based, rat
# Protocol: Detection of Cytochrome c Release Reaction Cells were trypsinized and centrifuged at 800×g for 10 minutes. Then, the cell pellet was re-suspended in 50 μL of extraction buffer containing 20 mmol/L HEPES, pH 7.5, 10 mmol/L KCl, 1.5 mmol/L MgCl2, 1 mmol/L EDTA, 1 mmol/L EGTA, 1 mmol/L dithithretol, 1 mmol/L PMSF) and incubated for 3 minutes on ice. Cells were managed with 30 strokes and centrifuged at 15,000×g for 15 minutes at 4° C. Aliquots of 20 μg protein were resolved on 15% SDS-polyacrylamide gel and then blotted to PVDF membranes. Membranes were incubated with anti-cytochrome c monoclonal antibody. Then, membranes were incubated with anti-mouse IgG and the expression of cytochrome c was detected as described previously.
# Western Blot Analysis After the exposure of cells to the indicated agents for four (for Bcl-2) or six (for cytochrome c) hours, cells were washed twice with ice-cold PBS and reaction was terminated by the addition of 100 μL ice-cold lysis buffer (10 mmol/L Tris-HCl, pH 7.4, 150 mmol/L NaCl, 1 mmol/L EGTA, 0.5 mmol/L phenylmethylsulfonyl fluoride (PMSF), 10 μg/mL aprotinin, 10 μg/mL leupeptin, and 1% Triton X-100). […] Protein content was determined by the Bio-Rad protein assay (Bio-Rad Laboratories, CA, USA). […]
# [1] = system: murine macrophage RAW 264.7 cells; assay: LPS-evoked NO formation; assay type: cell-based; conditions: RAW 264.7, LPS 1 μg/mL, 24-hour; control 68.8±13.4; P=0.43, n=4
# [2] = Free radical-scavenging activity with 1,1-diphenyl-2-picrylhydrazyl; conditions: stable radical 1,1-diphenyl-2-picrylhydrazyl; data not shown
# NR8383 macrophages = assay: LPS/interferon γ-induced tumor necrosis factor-α release; assay type: cell-based; conditions: control 15.5±1.3, P=0.13, n=4
# [3] = system: rat aortic smooth muscle cells; assay: Cytotoxicity (MTT) assay and TUNEL labeling, SNP-induced apoptosis in RASMCs; assay type: cell-based; conditions: for Cell survival (%) / effect on SNP-induced apoptosis / effect on Compound 3-induced cell proliferation / effect on Compound 3-mediated anti-apoptotic action: RASMCs; for effect on SNP-induced apoptosis: SNP 1 mmol/L, Compound 3 30 μmol/L; for effect on Compound 3-mediated anti-apoptotic action: inhibitor added to Compound 3 + SNP
# Protocol: (§1) Cell Culture Rat aortic smooth muscle cells (RASMCs) were prepared from Sprague-Dawley rats and cultured in Dulbecco's modified Eagle's medium (DMEM) supplemented with 10% FBS, 100 units/mL penicillin and 100 μg/mL streptomycin (Gibco, Grand Island, N.Y.) as previously described (Yang et al. (2001) Br J Pharmacol. 132: 1531-1541). Cells within six generations were used in the present study. Cells were identified being the smooth muscle cells by immunostaining with monoclonal antibody specific for smooth muscle α-actin.
# Cytotoxicity Assay The cytotoxicity assay was carried out using the MTT assay method. MTT (3-(4,5-dimethylthiazol-2-yl)-2,5-diphenyltetrazolium bromide, Sigma Chemical, St. Louis, Mo.) was dissolved in phosphate-buffered saline (PBS) at a concentration of 5 mg/mL and filtered (Millipore, Bedford, Mass.). From this stock solution, 10 μL/100 μL of medium was added to each well of a plate, and the plate was gently shaken and incubated at 37° C. for 2 hours. […] After the loading of MTT, the medium was replaced with 100 μL dimethylsulphoxide (DMSO). The extent of reduction of MTT to formazan within cells was quantified by the measurement of OD550 with an enzyme-linked immunosorbent assay (ELISA) reader.
# In Situ Labeling of Apoptotic Cells In situ detection of apoptotic cells was carried out by using a terminal deoxynucleotidyl transferase (TdT) dUTP nick-end labeling (TUNEL) method with an apoptotic detection kit (Promega, Madison, Wis., USA) as described previously (Guh et al. (1998) Mol Pharmacol. 53: 467-474). The TUNEL method identifies apoptotic cells in situ by using TdT to transfer biotin-dUTP to the free 3′-OH of cleaved DNA. The biotin-labeled cleavage sites then were visualized by reaction with fluorescein conjugated avidin (avidin-fluorescein isothiocyanate). Photomicrographs were obtained with a fluorescence microscope (Nikon).
# [4] = Reduction of cytochrome c by superoxide anion (xanthine/xanthine oxidase); assay type: biochemical; conditions: xanthine/xanthine oxidase system; control 42.0±2.1; P=0.4, n=4
# [5] = system: LPS-induced septic death in mouse model; assay: LPS-induced endotoxic shock (septic death) and lung histology; assay type: in vivo, mice
# Protocol: Induction of Endotoxic Shock and Histological Examination In these experiments, mice (25-30 g, ICR strain) were injected intraperitoneally with 60 mg/kg of LPS (dissolved in PBS), and Compound 3 (suspended in carboxymethyl cellulose) was orally administered after the injection of LPS for 2 and 6 hours. The survival rate was monitored every 3 to 6 hours after LPS injection. For histological examination, the lung tissues were put into the 4% paraformaldehyde and embedded in paraffin. The embedded tissues were sectioned at 6-μm thick, stained with hematoxylin-eosin, and analyzed using a microscopy.
# [6] = system: intracellular cGMP levels; assay: Assay of cGMP contents; assay type: cell-based, rat
# Protocol: as §1
# Assay of cGMP Contents At confluence, monolayer cells were incubated with indicated agents for 10 minutes. Then cells were washed twice with ice-cold PBS and lysed with 0.5 mL NaOH (0.1 mol/L). 0.5 mL HCl (0.1 mol/L) was then added to neutralize the assay solution. After the centrifugation (3,000×g for 3 minutes), the supernatant was used for the detection of cGMP content by using a cGMP ELISA kit.
# caspase-3 = assay: Determination of caspase-3 activity in RASMCs; assay type: cell-based, rat
# Protocol: Determination of Caspase-3 Activity
# The Caspase-3 activity was assayed with the Caspase-3 colorimetric assay kit (R&D Systems, Inc., Minneapolis, Minn.). After the treatment of cells with indicated agents for ten hours, cells were washed twice with ice-cold PBS, trypsinized, and centrifuged (800×g for 5 minutes), and the cell pellet was re-suspended in pre-cooled lysis buffer obtained from the Caspase-3 colorimetric assay kit. After 10 minutes of incubation on ice, cell homogenates were centrifuged at 10,000×g for 1 minute and supernatants were removed for the determination of caspase-3 activity. Proteolytic reactions were performed in a total volume of 100 μL reaction buffer containing 50 μL of cytosolic extracts and 5 μL DEVD-pNA obtained from the kit. The reaction mixture was incubated at 37° C. for one to two hours and the formation of p-nitroaniline was then measured at 405 nm by an ELISA reader.
# phosphorylated Akt = assay: Western blot of phosphorylated Akt; assay type: cell-based, rat
# Protocol: (§2) Western Blot Analysis After the exposure of cells to the indicated agents for four (for Bcl-2) or six (for cytochrome c) hours, cells were washed twice with ice-cold PBS and reaction was terminated by the addition of 100 μL ice-cold lysis buffer (10 mmol/L Tris-HCl, pH 7.4, 150 mmol/L NaCl, 1 mmol/L EGTA, 0.5 mmol/L phenylmethylsulfonyl fluoride (PMSF), 10 μg/mL aprotinin, 10 μg/mL leupeptin, and 1% Triton X-100). For the detection of phosphorylated Akt, 1 mmol/L Na3VO4, 1 mmol/L NaF, 50 mmol/L tetrasodium pyrophosphate, 10 nmol/L okadaic acid, 0.25% sodium deoxycholate were included in the lysis buffer. Protein content was determined by the Bio-Rad protein assay (Bio-Rad Laboratories, CA, USA). For Western blot analysis, cell lysates (25 μg/lane) were electrophoresized on 10-15% SDS-polyacrylamide gels, and transferred to a nitrocellulose membrane. The membranes were probed with anti-Bcl-2 or anti-α-tubulin monoclonal antibody, or anti-phosphorylated Akt polyclonal antibody. The transferred membranes were developed with a secondary anti-mouse or anti-rabbit antibody as we previously described (Guh et al. (1998) Eur. J. Pharmacol. 359: 281-284). Detection of signal was performed with an enhanced chemiluminescence detection kit (ECL; Amersham International, Little Chalfont, U.K.).
# Bcl-2 = assay: Western blot of Bcl-2 levels; assay type: cell-based, rat
# Protocol: as §2
# cyclooxygenase = conditions: Ko et al. (1994) Blood 84: 4226-4233; cited from earlier work
# [7] = single agent alone, mean ± SEM, control 100
# [8] = combination of SNP and Compound 3
# [9] = inhibitor added to Compound 3 + SNP
smiles,measurement,setting,value
OCc1ccc(-c2nn(Cc3ccccc3)c3ccccc23)o1 [Compound 3],effect on SNP-induced cytochrome c release,cytochrome c; SNP 1 mmol/L,completely prevented
same,NO formation (nitrite),[1],53.4 ± 12.3 µmol/L
same,free radical-scavenging activity,[2],little free radical-scavenging activity
same,LPS/interferon γ-induced tumor necrosis factor-α release,NR8383 macrophages,18.5 ± 1.2 ng/mL
same,increase in cell number,"[3]; Compound 3 alone, not statistically significant",11%
same,Cell survival (%),[3]; ODQ + Compound 3,96.1 ± 4.2%
same,Cell survival (%),[3]; ODQ + SNP + Compound 3,69.6 ± 4.0 %
same,effect on SNP-induced apoptosis,[3],completely abolished
same,Cell survival (%),"[3]; SNP + Compound 3 (SNP 1 mmol/L, Compound 3 30 μmol/L)",100.6±5.5% and 102.9 ± 8.1^+ %
same,ODQ-irresponsible action in Compound 3-mediated effect,[3]; remaining anti-apoptotic effect in presence of ODQ,about 20%
same,Cell survival (%),[3]; [7],111.3 ± 8.8%
same,reduction of cytochrome c by superoxide anion,[4],40±0.6%
same,condition of survived mice after LPS initiation,"[5]; LPS 60 mg/kg i.p., Compound 3 10 mg/kg oral post-treatment",remained vigorous more than one month
same,survival rate of mice,"[5]; LPS 60 mg/kg i.p., Compound 3 10 mg/kg oral two hours after LPS",significantly increased
same,histological examination of lung tissues,"[5]; post-treated Compound 3 group, LPS mice",intact blood vessels without the infiltration of blood cells
same,cGMP synthesis,"[6]; Compound 3 alone, basal 2.3±0.3, 10 minutes",4.2±0.8 fmol/well
same,cGMP formation,[6]; [8],252.8±81.8 fmol/well
same,increase of cGMP formation (folds),[6]; [8],more than sixty folds
same,effect on SNP-induced caspase-3 activity,"caspase-3; SNP 1 mmol/L, RASMCs",completely inhibited
same,phosphorylated Akt expression,phosphorylated Akt; Compound 3 alone,profound increase
same,phosphorylated Akt expression,phosphorylated Akt; Compound 3 in combination with SNP,profound increase
same,effect on SNP-induced Bcl-2 down-regulation,Bcl-2; SNP 1 mmol/L,completely prevented
same,inhibition on cyclooxygenase activity,cyclooxygenase,no inhibition
CCCC(=O)Nc1nc2c(ncn2C2OC3COP(=O)([O-])OC3C2OC(=O)CCC)c(=O)[nH]1.[Na+] (centres unmarked) [dibutyl-cGMP],effect on SNP-induced apoptosis,[3],significantly reverse
"O=c1onc2cnc3ccccc3n12 [ODQ, reference compound]",effect on preventive action of Compound 3 (cytochrome c release),cytochrome c; [9],fully reversed
same,effect on Compound 3-induced cell proliferation,[3],completely inhibited
same,effect on SNP-induced apoptosis,[3],no influence
same,effect on Compound 3-mediated anti-apoptotic action,[3],significantly reversed
same,Cell survival (%),[3]; [7],99.5 ± 5.7%
same,cGMP level,[6]; ODQ + Compound 3 alone,the basal value
same,cGMP level,[6]; ODQ + combination of SNP and Compound 3,~21 fmol/well
same,effect on Compound 3-mediated inhibition of caspase-3 activity,caspase-3; [9],partially but significantly reversed
same,effect on Compound 3-induced phosphorylated Akt expression,phosphorylated Akt; Compound 3 alone or with SNP,profoundly inhibited
same,effect on preventive action of Compound 3 (Bcl-2 down-regulation),Bcl-2; [9],fully reversed
COc1cccc(-c2cc(=O)c3ccccc3o2)c1N [PD98059],effect on Compound 3-induced cell proliferation,[3],completely inhibited
same,effect on Compound 3-mediated anti-apoptotic action,[3],significantly reversed; also recorded: not PD98059 reversed
Cn1cc(C2=C(c3cn(CCCSC(=N)N)c4ccccc34)C(=O)NC2=O)c2ccccc21 [Ro-318220],cell survival,"[3]; Ro-318220 added to Compound 3 plus SNP, n=7",107.1±3.1%
same,effect on Compound 3-mediated anti-apoptotic action,[3],little influence
